From ChEMBL document CHEMBL1201862, “PubChem BioAssay data set” (2004)
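Tested at 5 concentrations; 48 h exposure; 96-well plates; endpoints linearly interpolated, else capped at highest concentration. GI50: concentration for 50% inhibition of growth.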 Calls of active or inactive are those of the source. Rule as the data show it: active = GI50 up to about 1.1 µM and inactive = higher.

Legend:
Test in all cases: DTP human tumour cell line panel, 48 h
[1] = test system: A549
[2] = test system: EKVX
[3] = test system: HT-29
[4] = test system: KM12
[5] = test system: MOLT-4
[6] = test system: NCI-H23
[7] = test system: NCI-H522
[8] = test system: OVCAR-3
[9] = test system: OVCAR-5
[10] = test system: RXF 393
[11] = test system: SK-OV-3
[12] = test system: SNB-19
[13] = test system: TK-10
[14] = test system: U-251
[15] = test system: SR

Measured: GI50

COc1ccc(S(=O)(=O)NC(C)C(=O)O)cc1 (stereo unspecified)
inactive: [1] > 100 µM | [2] > 100 µM | [3] > 100 µM | [4] > 100 µM | [5] > 100 µM | [6] > 100 µM | [7] > 100 µM | [8] > 100 µM | [9] > 100 µM | [10] > 100 µM | [11] > 100 µM | [12] > 100 µM | [13] > 100 µM | [14] > 100 µM

CCCN(CCC)CCc1cc(C(C)=O)n(S(=O)(=O)c2ccc(C)cc2)c1
inactive: [1] > 100 µM | [2] > 100 µM | [3] 45.6 µM | [4] > 100 µM | [5] > 100 µM | [6] > 100 µM | [7] > 100 µM | [8] > 100 µM | [9] > 100 µM | [11] > 100 µM | [12] > 100 µM | [15] > 100 µM | [13] > 100 µM | [14] > 100 µM

O=C1C(Cl)C(c2ccc([N+](=O)[O-])cc2)N1n1cnc2ccccc2c1=O (stereo unspecified)
inactive: [1] 30.7 µM | [2] 12.7 µM | [3] > 100 µM | [4] 89.9 µM | [5] 49.1 µM | [6] 32.6 µM | [7] 49.8 µM | [8] 52.4 µM | [9] > 100 µM | [10] 23.6 µM | [11] 9.75 µM | [12] 73.3 µM | [13] 25.3 µM | [14] 47.8 µM

CCOP(=O)(OCC)C1CC(C)OC1=O (stereo unspecified)
inactive: [1] > 100 µM | [2] > 100 µM | [3] > 100 µM | [4] > 100 µM | [5] > 100 µM | [6] > 100 µM | [8] > 100 µM | [9] > 100 µM | [10] > 100 µM | [11] > 100 µM | [12] > 100 µM | [13] > 100 µM | [14] > 100 µM

Nc1ccc(C(=O)NN2C(=O)C(Cl)C2c2cccc([N+](=O)[O-])c2)cc1 (stereo unspecified)
inactive: [1] 46.3 µM | [2] 28.2 µM | [3] 20.7 µM | [4] 16.2 µM | [5] 15.1 µM | [6] 16.4 µM | [7] 12 µM | [8] 20.5 µM | [9] 21.1 µM | [11] 18.7 µM | [12] 17.3 µM | [13] 18.7 µM | [14] 13.9 µM

O=c1c2cccc3cccc(c4n1CCN=4)c32
inactive: [1] > 100 µM | [2] > 100 µM | [3] > 100 µM | [4] 76.9 µM | [5] 30.3 µM | [6] > 100 µM | [7] 84.3 µM | [8] > 100 µM | [9] > 100 µM | [10] 42.4 µM | [11] 41 µM | [15] 25.2 µM | [13] 17.5 µM | [14] > 100 µM

CCC12CCCC(=O)N1C(CO)C(c1ccccc1)O2 (stereo unspecified)
inactive: [1] > 100 µM | [2] > 100 µM | [3] > 100 µM | [4] > 100 µM | [6] > 100 µM | [8] > 100 µM | [9] > 100 µM | [10] > 100 µM | [12] > 100 µM | [15] > 100 µM | [13] > 100 µM | [14] > 100 µM

CC(=O)Nc1ccc(C2CC(c3ccc([N+](=O)[O-])cc3)=Nc3ccccc3[S+]2[O-])cc1 (stereo unspecified)
inactive: [1] 38.4 µM | [2] 36.5 µM | [3] 22.6 µM | [4] 14.1 µM | [5] 12.6 µM | [6] 21.5 µM | [7] 17.3 µM | [8] 25.3 µM | [9] 50.6 µM | [10] 17.4 µM | [11] 27.4 µM | [12] 36.8 µM | [13] 28.8 µM

CCOc1ccc2c(c1)[n+]([O-])c(-c1ccccc1)c(N)[n+]2[O-]
inactive: [1] > 100 µM | [2] 89.1 µM | [3] > 100 µM | [4] 97.3 µM | [5] 46.8 µM | [6] 29.9 µM | [7] 16.8 µM | [8] 82.2 µM | [9] > 100 µM | [11] > 100 µM | [12] > 100 µM | [13] > 100 µM | [14] 47.6 µM

O=C(N/N=C/c1cc(-c2ccccc2Cl)c(-c2ccccc2Cl)o1)c1ccncc1
inactive: [1] > 100 µM | [2] > 100 µM | [3] 80.5 µM | [6] > 100 µM | [7] 83.6 µM | [8] 43.9 µM | [9] > 100 µM | [10] > 100 µM | [11] > 100 µM | [12] > 100 µM | [13] > 100 µM

Clc1ccc(C2=NN(c3ccccc3)C3c4cc(Br)ccc4OCC23)cc1 (stereo unspecified)
inactive: [1] > 100 µM | [2] > 100 µM | [3] 66.7 µM | [4] > 100 µM | [5] 40.9 µM | [6] 86.9 µM | [7] > 100 µM | [8] > 100 µM | [9] > 100 µM | [10] 61.1 µM | [11] > 100 µM | [12] > 100 µM | [13] > 100 µM | [14] 67.3 µM

O=S1(=O)NN=C(NCc2ccc(Cl)c(Cl)c2)c2ccccc21
inactive: [1] > 100 µM | [2] > 100 µM | [3] 53.8 µM | [4] > 100 µM | [5] 15.1 µM | [8] > 100 µM | [9] > 100 µM | [10] 19.8 µM | [12] > 100 µM | [15] 15.6 µM | [14] 30.2 µM

N#CC(N)(C(=O)CCC(=O)Nc1cccc(Cl)c1)c1ccc(Cl)cc1 (stereo unspecified)
inactive: [1] > 100 µM | [2] > 100 µM | [3] > 100 µM | [4] > 100 µM | [5] > 100 µM | [6] > 100 µM | [7] > 100 µM | [8] > 100 µM | [11] > 100 µM | [12] > 100 µM | [15] > 100 µM | [13] > 100 µM | [14] > 100 µM

COC(=O)C(C(=O)C(=O)Nc1cccc(OC)c1)c1cnc2ccccc2n1 (stereo unspecified)
inactive: [1] 66.8 µM | [2] > 100 µM | [3] > 100 µM | [4] > 100 µM | [5] > 100 µM | [6] > 100 µM | [7] > 100 µM | [9] > 100 µM | [10] 46.1 µM | [11] > 100 µM | [12] > 100 µM | [15] > 100 µM | [13] > 100 µM | [14] > 100 µM

COC(=O)/C(Cl)=C1/CC1COCc1ccccc1 (stereo unspecified)
inactive: [1] 54.7 µM | [2] > 10 µM | [3] 25 µM | [4] 28.7 µM | [5] 19.8 µM | [6] 31.5 µM | [7] 20.3 µM | [8] 23.2 µM | [9] 74.3 µM | [10] 18.9 µM | [11] > 100 µM | [12] 78.9 µM | [13] 30.8 µM
